Results: patent US9328138B2 (priority 2011, dated 2016)
Structures can show the parent of a compound that is named as a salt.

Tests used:
[1] = molecular target: T1, HCV genotype 1b (BK) NS3 modified enzyme with a R155K mutation (Hepatitis C virus genotype 1b, UniProt P26663, R1181K); experiment: HCV NS3 protease time-resolved fluorescence (TRF) assay, genotype 1b R155K; type: biochemical; details: Ki 1b R155K
T1 construct: HCV genotype 1b (BK) NS3 modified enzyme
Summary of the method: (§1)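 IC50 values derive from 4-parameter fitting of TRF signal after a 6 h room-temperature cleavage of 25 nM peptide substrate by NS3/NS4A that had been pre-incubated 10 min with compound.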

[2] = molecular target: HCV NS3 protease genotype 3a (3A-1) (Hepatitis C virus genotype 3a, UniProt Q81258); experiment: HCV NS3 protease time-resolved fluorescence (TRF) assay, genotype 3a; type: biochemical; details: Ki 3a
Summary of the method: as §1

[3] = genotype 1b (BK) NS3 R155K, single value

| Structure (SMILES) | Ki [1, 3] | Ki [2] | Ki ([1]; first of two values printed in the cell (not explained)) | Ki ([1]; second of two values printed in the cell (not explained)) |
| --- | --- | --- | --- | --- |
| C=C[C@@H]1C[C@]1(NC(=O)[C@@H]1C[C@@H]2CN1C(=O)[C@H](C(C)(C)C)NC(=O)O[C@@H]1C[C@H]1CCCCCc1c(nc3ccccc3c1OCCCN1CCCCC1c1nc3cc(F)ccc3[nH]1)O2)C(=O)NS(=O)(=O)C1(C)CC1 (stereo partly drawn) [Example 203, (1aR,5S,8S,10R,22aR)-5-tert-butyl-N-[(1R,2S)-2-ethenyl-1-{[(1-methylcyclopropyl)sulfonyl]carbamoyl}cyclopropyl]-17-{3-[2-(5-fluoro-1H-benzimidazol-2-yl)piperidin-1-yl]propoxy}-3,6-dioxo-1,1a,3,4,5,6,9,10,18,19,20, 21,22,22a-tetradecahydro-8H-7,10-methanocyclopropa[18,19][1,10,3,6] dioxadiazacyclononadecino[11,12-b] quinoline-8-carboxamide] | 0.13 nM | 4.9 nM |  |  |
| C=C[C@@H]1C[C@]1(NC(=O)[C@@H]1C[C@@H]2CN1C(=O)[C@H](C(C)(C)C)NC(=O)O[C@@H]1C[C@H]1CCCCCc1c(nc3ccccc3c1OCCCN1CCCCC1)O2)C(=O)NS(=O)(=O)C1(C)CC1 [Example 115, (1aR,5S,8S,10R,22aR)-5-tert-butyl-N-[(1R,2S)-2-ethenyl-1-{[(1-methylcyclopropyl)sulfonyl]carbamoyl}cyclopropyl]-3,6-dioxo-17-[3-(piperidin-1-yl)propoxy]-1,1a,3,4,5,6,9,10,18,19,20,21,22,22a-tetradeca hydro-8H-7,10-methano cyclopropa[18,19][1,10,3,6] dioxadiazacyclononadecino [11,12-b]quinoline-8-carboxamide] | 0.057 nM | 0.25 nM |  |  |
| C=C[C@@H]1C[C@]1(NC(=O)[C@@H]1C[C@@H]2CN1C(=O)[C@H](C(C)(C)C)NC(=O)O[C@@H]1C[C@H]1CCCCCc1c(nc3ccccc3c1OCCN1CCS(=O)(=O)CC1)O2)C(=O)NS(=O)(=O)C1(C)CC1 [Example 176, (1aR,5S,8S,10R,22aR)-5-tert-butyl-17-[2-(1,1-dioxidothiomorpholin-4-yl)ethoxy]-N-[(1R,2S)-2-ethenyl-1-{[(1-methylcyclopropyl)sulfonyl]carbamoyl}cyclopropyl]-3,6-dioxo-1,1a,3,4,5,6,9,10,18,19,20,21,22,22a-tetradecachydro-8H-7,10-methanocyclopropa[18,19][1,10,3,6] dioxadiazacyclononadecino[11,12-b] quinoline-8-carboxamide] | 0.1 nM | 1.3 nM |  |  |
| C=C[C@@H]1C[C@]1(NC(=O)[C@@H]1C[C@@H]2CN1C(=O)[C@H](C1CCCCC1)NC(=O)O[C@@H]1C[C@H]1CCCCCc1c(nc3ccccc3c1OCCCN1CCCOCC1)O2)C(=O)NS(=O)(=O)C1(C)CC1 [Example 168, (1aR,5S,8S,10R,22aR)-5-cyclohexyl-N-[(1R,2S)-2-ethenyl-1-{[(1-methylcyclopropyl)sulfonyl]carbamoyl}cyclopropyl]-17-[3-(1,4-oxazepan-4-yl)propoxy]-3,6-dioxo-1,1a,3,4,5,6,9,10,18,19,20,21, 22,22a-tetradeca hydro-8H-7,10-methanocyclopropa[18,19][1,10,3,6] dioxadiazacyclononadecino[11,12-b] quinoline-8-carboxamide] | 0.078 nM | 1.3 nM |  |  |
| C=C[C@@H]1C[C@]1(NC(=O)[C@@H]1C[C@@H]2CN1C(=O)[C@H](C1CCCC1)NC(=O)O[C@@H]1CCC[C@H]1CC/C=C/Cc1c(nc3ccccc3c1OCCCn1cccc1)O2)C(=O)NS(=O)(=O)C1(C)CC1 [Example 55, (3aR,7S,10S,12R,21E,24aS)-7-cyclopentyl-N-[(1R,2S)-2-ethenyl-1-{[(1-methylcyclopropyl)sulfonyl]carbamoyl}cyclopropyl]-5,8-dioxo-19-[3-(1H-pyrrol-1-yl)propoxy]-1,2,3,3a,5,6,7,8,11,12,20,23,24,24a-tetradecahydro-10H-9,12-methanocyclopenta[18,19][1,10,3,6] dioxadiazacyclononadecino[11,12-b] quinoline-10-carboxamide] | 0.22 nM | 3.9 nM |  |  |
| C=C[C@@H]1C[C@]1(NC(=O)[C@@H]1C[C@@H]2CN1C(=O)[C@H](C(C)(C)C)NC(=O)O[C@@H]1C[C@H]1CCCCCc1c(nc3ccccc3c1OCCCN1CCC1)O2)C(=O)NS(=O)(=O)C1(C)CC1 [Example 133, (1aR,5S,8S,10R,22aR)-17-[3-(azetidin-1-yl)propoxy]-5-tert-butyl-N-[(1R,2S)-2-ethenyl-1-{[(1-methylcyclopropyl)sulfonyl]carbamoyl}cyclopropyl]-3,6-dioxo-1,1a,3,4,5,6,9,10,18,19,20,21,22,22a-tetradecahydro-8H-7,10-methanocyclopropa[18,19][1,10,3,6]dioxadiazacyclononadecino[11,12-b]quinoline-8-carboxamide] | 0.11 nM | 1 nM |  |  |
| C=C[C@@H]1C[C@]1(NC(=O)[C@@H]1C[C@@H]2CN1C(=O)[C@H](C(C)(C)C)NC(=O)O[C@@H]1CCC[C@H]1CCCCCc1c(nc3ccccc3c1OCCN1CCOCC1)O2)C(=O)NS(=O)(=O)C1(COC)CC1 [Example 61, (3aR,7S,10S,12R,24aR)-7-tert-butyl-N-[(1R,2S)-2-ethenyl-1-({[1-(methoxymethyl)cyclopropyl]sulfonyl}carbamoyl)cyclopropyl]-19-[2-(morpholin-4-yl)ethoxy]-5,8-dioxo-1,2,3,3a,5,6,7,8,11,12,20,21,22,23,24,24a-hexadecahydro-10H-9,12-methanocyclopenta[18,19][1,10,3,6]dioxadiazacyclononadecino[11,12-b]quinoline-10-carboxamide] | 0.7 nM | 20 nM |  |  |
| C=C[C@@H]1C[C@]1(NC(=O)[C@@H]1C[C@@H]2CN1C(=O)[C@H](C1CCCC1)NC(=O)O[C@@H]1CCC[C@H]1CC/C=C\Cc1c(nc3ccccc3c1OCC)O2)C(=O)NS(=O)(=O)C1CC1 [Example 3, (3aR,7S,10S,12R,21Z,24aS)-7-cyclopentyl-N-{(1R,2S)-1-[(cyclopropylsulfonyl)carbamoyl]-2-ethenylcyclopropyl}-19-ethoxy-5,8-dioxo-1,2,3,3a, 5,6,7,8,11,12,20,23,24,24a-tetradecahydro-10H-9,12-methanocyclopenta[18,19][1,10,3,6] dioxadiazacyclononadecino[11,12-b] quinoline-10-carboxamide] | 1.4 nM | 35 nM |  |  |
| C=C[C@@H]1C[C@]1(NC(=O)[C@@H]1C[C@@H]2CN1C(=O)[C@H](C1CCCC1)NC(=O)O[C@@H]1CCC[C@H]1CC/C=C/Cc1c(nc3ccccc3c1OCCn1cccn1)O2)C(=O)NS(=O)(=O)C1CC1 [Example 44, (3aR,7S,10S,12R,21E,24aS)-7-cyclopentyl-N-{(1R,2S)-1-[(cyclopropylsulfonyl)carbamoyl]-2-ethenylcyclopropyl}-5,8-dioxo-19-[2-(1H-pyrazol-1-yl)ethoxy]-1,2,3,3a,5,6,7,8,11,12,20,23,24,24a-tetra decahydro-10H-9,12-methanocyclopenta[18,19][1,10,3,6]dioxadiazacyclonona decino[11,12-b] quinoline-10-carboxamide] | 0.25 nM | 7.9 nM |  |  |
| C=C[C@@H]1CC1(NC(=O)[C@@H]1C[C@@H]2CN1C(=O)[C@H](C(C)(C)C)NC(=O)O[C@@H]1C[C@H]1CCCCCc1c(nc3ccccc3c1OC1C3COCC1CN(CCOC)C3)O2)C(=O)NS(=O)(=O)C1(C)CC1 (stereo partly drawn) [Example 257, 9-{[(1aR,5S,8S,10R,22aR)-5-tert-butyl-8-{[(1R,2S)-2-ethenyl-1-{[1-methylcyclopropyl)sulfonyl]carbamoyl}cyclopropyl]carbamoyl}-3,6-dioxo-1,1a,3,4,5,6,9,10,18,19,20,21,22,22a-tetradecahydro-8H-7,10-methanocyclopropa[18,19][1,10,3,6]dioxadiazacyclononadecino[11,12-b]quinolin-17-yl]oxy}-7-(2-methoxyethyl)-3-oxa-7-azoniabicyclo[3.3.1]nonane formate] |  | 3.9 nM | 0.032 nM | 0.23 nM |
| C=C[C@@H]1C[C@]1(NC(=O)[C@@H]1C[C@@H]2CN1C(=O)[C@H](C(C)(C)C)NC(=O)O[C@@H]1CCC[C@H]1CC/C=C/Cc1c(nc3ccccc3c1OCCCN1CCCC1=O)O2)C(=O)NS(=O)(=O)C1(C)CC1 [Example 89, (3aR,7S,10S,12R,21E,24aS)-7-tert-butyl-N-[(1R,2S)-2-ethenyl-1-{[(1-methycyclopropyl)sulfonyl]carbamoyl}cyclopropyl]-5,8-dioxo-19-[3-(2-oxopyrrolidin-1-yl)propoxy]-1,2,3,3a,5,6,7,8,11,12,20,23,24,24a-tetradecahydro-10H-9,12-methano-cyclopenta[18,19][1,10,3,6]dioxa diazacyclononadecino[11,12-b] quinoline-10-carboxamide] | 0.07 nM | 0.32 nM |  |  |
| C=C[C@@H]1C[C@]1(NC(=O)[C@@H]1C[C@@H]2CN1C(=O)[C@H](C(C)(C)C)NC(=O)O[C@@H]1C[C@H]1CCCCCc1c(nc3ccccc3c1OCCCN1CCCC(F)C1)O2)C(=O)NS(=O)(=O)C1(C)CC1 (stereo partly drawn) [Example 158, (1aR,5S,8S,10R,22aR)-5-tert-butyl-N-[(1R,2S)-2-ethenyl-1-{[(1-methylcyclopropyl)sulfonyl]carbamoyl}cyclopropyl]-17-[3-(3-fluoropiperidin-1-yl)propoxy]-3,6-dioxo-1,1a,3,4,5,6,9,10,18,19, 20,21,22,22a-tetradecahydro-8H-7,10-methanocyclopropa[18,19][1,10,3,6] dioxadiazacyclononadecino[11,12-b] quinoline-8-carboxamide] | 0.19 nM | 2.6 nM |  |  |
